Experimental data published in the NIST ThermoML archive (doi:10.1016/j.jct.2015.07.028).
Numbers after ± are expanded uncertainties.

Experiment: molar heat capacity at saturation pressure
Details: Small (less than 1 g) adiabatic calorimetry

SMILES: C=CC(C)(C)O [2-methyl-3-buten-2-ol]
- molar heat capacity (169.35 K, Crystal 1): 120.3 ± 0.7 J/K/mol
- molar heat capacity (169.77 K, Crystal 1): 120.8 ± 0.7 J/K/mol
- molar heat capacity (170 K, Crystal 1): 121 ± 0.7 J/K/mol
- molar heat capacity (171.3 K, Crystal 1): 122.5 ± 0.7 J/K/mol
- molar heat capacity (172.07 K, Crystal 1): 123.4 ± 0.7 J/K/mol
- molar heat capacity (173.24 K, Crystal 1): 124.6 ± 0.7 J/K/mol
- molar heat capacity (174.35 K, Crystal 1): 125.9 ± 0.7 J/K/mol
- molar heat capacity (175.17 K, Crystal 1): 126.8 ± 0.7 J/K/mol
- molar heat capacity (176.62 K, Crystal 1): 128.4 ± 0.7 J/K/mol
- molar heat capacity (177.09 K, Crystal 1): 128.8 ± 0.7 J/K/mol
- molar heat capacity (178.87 K, Crystal 1): 130.7 ± 0.7 J/K/mol
- molar heat capacity (179 K, Crystal 1): 130.8 ± 0.7 J/K/mol
- molar heat capacity (179.83 K, Crystal 1): 131.6 ± 0.7 J/K/mol
- molar heat capacity (180 K, Crystal 1): 131.9 ± 0.7 J/K/mol
- molar heat capacity (180.91 K, Crystal 1): 132.7 ± 0.7 J/K/mol
- molar heat capacity (181.12 K, Crystal 1): 133 ± 0.7 J/K/mol
- molar heat capacity (182.29 K, Crystal 1): 134.1 ± 0.7 J/K/mol
- molar heat capacity (182.8 K, Crystal 1): 134.7 ± 0.8 J/K/mol
- molar heat capacity (183.35 K, Crystal 1): 135.2 ± 0.8 J/K/mol
- molar heat capacity (184.61 K, Crystal 1): 136.5 ± 0.8 J/K/mol
- molar heat capacity (184.69 K, Crystal 1): 136.5 ± 0.8 J/K/mol
- molar heat capacity (185.57 K, Crystal 1): 137.5 ± 0.8 J/K/mol
- molar heat capacity (186.58 K, Crystal 1): 138.4 ± 0.8 J/K/mol
- molar heat capacity (186.93 K, Crystal 1): 138.7 ± 0.8 J/K/mol
- molar heat capacity (187.79 K, Crystal 1): 139.5 ± 0.8 J/K/mol
- molar heat capacity (188.45 K, Crystal 1): 140.2 ± 0.8 J/K/mol
- molar heat capacity (189.23 K, Crystal 1): 140.9 ± 0.8 J/K/mol
- molar heat capacity (189.99 K, Crystal 1): 141.7 ± 0.8 J/K/mol
- molar heat capacity (190 K, Crystal 1): 141.7 ± 0.8 J/K/mol
- molar heat capacity (190.32 K, Crystal 1): 141.9 ± 0.8 J/K/mol
- molar heat capacity (190.4 K, Crystal 1): 142 ± 0.8 J/K/mol
- molar heat capacity (191.52 K, Crystal 1): 143.1 ± 0.8 J/K/mol
- molar heat capacity (192.18 K, Crystal 1): 143.7 ± 0.8 J/K/mol
- molar heat capacity (192.46 K, Crystal 1): 144.1 ± 0.8 J/K/mol
- molar heat capacity (193.79 K, Crystal 1): 145.4 ± 0.8 J/K/mol
- molar heat capacity (194.04 K, Crystal 1): 145.5 ± 0.8 J/K/mol
- molar heat capacity (194.36 K, Crystal 1): 146 ± 0.8 J/K/mol
- molar heat capacity (194.42 K, Crystal 1): 146 ± 0.8 J/K/mol
- molar heat capacity (195.89 K, Crystal 1): 147.4 ± 0.8 J/K/mol
- molar heat capacity (196.05 K, Crystal 1): 147.7 ± 0.8 J/K/mol
- molar heat capacity (196.36 K, Crystal 1): 147.9 ± 0.8 J/K/mol
- molar heat capacity (196.53 K, Crystal 1): 148.2 ± 0.8 J/K/mol
- molar heat capacity (197.73 K, Crystal 1): 149.3 ± 0.8 J/K/mol
- molar heat capacity (198.3 K, Crystal 1): 150 ± 0.8 J/K/mol
- molar heat capacity (198.69 K, Crystal 1): 150.5 ± 0.8 J/K/mol
- molar heat capacity (199.56 K, Crystal 1): 151.3 ± 0.8 J/K/mol
- molar heat capacity (200 K, Crystal 1): 151.5 ± 0.8 J/K/mol
- molar heat capacity (200.23 K, Crystal 1): 152 ± 0.8 J/K/mol
- molar heat capacity (200.54 K, Crystal 1): 152.4 ± 0.8 J/K/mol
- molar heat capacity (200.84 K, Crystal 1): 152.9 ± 0.8 J/K/mol
- molar heat capacity (201.38 K, Crystal 1): 153.4 ± 0.8 J/K/mol
- molar heat capacity (202.15 K, Crystal 1): 154.2 ± 0.8 J/K/mol
- molar heat capacity (202.82 K, Crystal 1): 155.2 ± 0.9 J/K/mol
- molar heat capacity (202.98 K, Crystal 1): 155.5 ± 0.9 J/K/mol
- molar heat capacity (203.2 K, Crystal 1): 155.5 ± 0.9 J/K/mol
- molar heat capacity (204.05 K, Crystal 1): 156.6 ± 0.9 J/K/mol
- molar heat capacity (205 K, Crystal 1): 157.8 ± 0.9 J/K/mol
- molar heat capacity (205.1 K, Crystal 1): 158.3 ± 0.9 J/K/mol
- molar heat capacity (205.14 K, Crystal 1): 158.2 ± 0.9 J/K/mol
- molar heat capacity (205.95 K, Crystal 1): 159.3 ± 0.9 J/K/mol
- molar heat capacity (206.79 K, Crystal 1): 160.4 ± 0.9 J/K/mol
- molar heat capacity (207.21 K, Crystal 1): 161.1 ± 0.9 J/K/mol
- molar heat capacity (207.45 K, Crystal 1): 161.3 ± 0.9 J/K/mol
- molar heat capacity (207.83 K, Crystal 1): 162 ± 0.9 J/K/mol
- molar heat capacity (208.58 K, Crystal 1): 163 ± 0.9 J/K/mol
- molar heat capacity (209.3 K, Crystal 1): 164.2 ± 0.9 J/K/mol
- molar heat capacity (209.7 K, Crystal 1): 164.9 ± 0.9 J/K/mol
- molar heat capacity (209.73 K, Crystal 1): 164.8 ± 0.9 J/K/mol
- molar heat capacity (210 K, Crystal 1): 161.4 ± 0.8 J/K/mol
- molar heat capacity (210.51 K, Crystal 1): 166.1 ± 0.9 J/K/mol
- molar heat capacity (211.48 K, Crystal 1): 167.6 ± 0.9 J/K/mol
- molar heat capacity (211.99 K, Crystal 1): 168.4 ± 0.9 J/K/mol
- molar heat capacity (212.63 K, Crystal 1): 169.5 ± 0.9 J/K/mol
- molar heat capacity (213.77 K, Crystal 1): 171.3 ± 0.9 J/K/mol
- molar heat capacity (214.23 K, Crystal 1): 172.1 ± 0.9 J/K/mol
- molar heat capacity (214.72 K, Crystal 1): 172.9 ± 0.9 J/K/mol
- molar heat capacity (216.04 K, Crystal 1): 174.8 ± 0.9 J/K/mol
- molar heat capacity (216.46 K, Crystal 1): 175.1 ± 0.9 J/K/mol
- molar heat capacity (216.8 K, Crystal 1): 176 ± 1 J/K/mol
- molar heat capacity (218.3 K, Crystal 1): 178.6 ± 1 J/K/mol
- molar heat capacity (218.66 K, Crystal 1): 178.8 ± 1 J/K/mol
- molar heat capacity (218.86 K, Crystal 1): 179 ± 1 J/K/mol
- molar heat capacity (220 K, Crystal 1): 171.2 ± 0.9 J/K/mol
- molar heat capacity (220.53 K, Crystal 1): 182.2 ± 1 J/K/mol
- molar heat capacity (220.85 K, Crystal 1): 182.3 ± 1 J/K/mol
- molar heat capacity (220.9 K, Crystal 1): 182.4 ± 1 J/K/mol
- molar heat capacity (222.77 K, Crystal 1): 186.2 ± 1 J/K/mol
- molar heat capacity (222.93 K, Crystal 1): 186.4 ± 1 J/K/mol
- molar heat capacity (223.02 K, Crystal 1): 186.5 ± 1 J/K/mol
- molar heat capacity (224.94 K, Crystal 1): 191.2 ± 1 J/K/mol
- molar heat capacity (224.97 K, Crystal 1): 190.4 ± 1 J/K/mol
- molar heat capacity (225.17 K, Crystal 1): 191 ± 1 J/K/mol
- molar heat capacity (226.94 K, Crystal 1): 195.7 ± 1 J/K/mol
- molar heat capacity (227.09 K, Crystal 1): 196.6 ± 1.1 J/K/mol
- molar heat capacity (227.29 K, Crystal 1): 196 ± 1 J/K/mol
- molar heat capacity (228.88 K, Crystal 1): 201.4 ± 1.1 J/K/mol
- molar heat capacity (229.2 K, Crystal 1): 202.9 ± 1.1 J/K/mol
- molar heat capacity (229.37 K, Crystal 1): 202.7 ± 1.1 J/K/mol
- molar heat capacity (230.8 K, Crystal 1): 208.3 ± 1.1 J/K/mol
- molar heat capacity (231.27 K, Crystal 1): 210.9 ± 1.1 J/K/mol
- molar heat capacity (231.43 K, Crystal 1): 210.5 ± 1.1 J/K/mol
- molar heat capacity (232.67 K, Crystal 1): 217.3 ± 1.2 J/K/mol
- molar heat capacity (233.3 K, Crystal 1): 221.6 ± 1.2 J/K/mol
- molar heat capacity (233.43 K, Crystal 1): 221.3 ± 1.2 J/K/mol
- molar heat capacity (234.49 K, Crystal 1): 229.7 ± 1.2 J/K/mol
- molar heat capacity (235.25 K, Crystal 1): 237.1 ± 1.3 J/K/mol
- molar heat capacity (235.37 K, Crystal 1): 236.9 ± 1.3 J/K/mol
- molar heat capacity (236.24 K, Crystal 1): 248.1 ± 1.3 J/K/mol
- molar heat capacity (240 K, Crystal 1): 190.8 ± 1.1 J/K/mol
- molar heat capacity (245.03 K, Crystal 1): 195.7 ± 1.1 J/K/mol
- molar heat capacity (245.03 K, Liquid): 193.8 ± 1.1 J/K/mol
- molar heat capacity (245.63 K, Liquid): 195.7 ± 1 J/K/mol
- molar heat capacity (245.81 K, Liquid): 194.6 ± 1 J/K/mol
